From patent US7994168B2, “Hexahydro-pyrazino[1,2-A]pyrimidine-4,7-dione derivatives substituted with amino acids” (Sanofi-Aventis Deutschland GmbH, priority 2004, dated 2011)

Test system: female NMRI mice
Test: Anorectic effect: cumulative condensed milk consumption of fasted mice
Assay type: in vivo
Conditions: oral dose 30 mg/kg by gavage after 24 hours food withdrawal, milk consumption determined for 7 hours, compared with vehicle-treated control animals
Method: The anorectic effect was tested on female NMRI mice. After withdrawal of food for 24 hours, the test product was administered by gavage. The animals were housed singly with free access to drinking water and were offered condensed milk 30 minutes after administration of the product. The condensed milk consumption was determined every half hour for 7 hours, and the general wellbeing of the animals was observed. The measured milk consumption was compared with the vehicle-treated control animals.

In the case of `CC(C)C(N)C(=O)N1CCCC1C(=O)NC1CN(S(=O)(=O)c2ccc(Cl)cc2Cl)C2CN(C(C)C)C(=O)C(Cc3ccc(Cl)cc3)N2C1=O` (stereo not drawn) [Example 1, N-[6-(4-Chlorobenzyl)-1-(2,4-dichlorobenzenesulfonyl)-8-isopropyl-4,7-dioxooctahydropyrazino[1,2-a]pyrimidin-3-yl]-1-(2-amino-3-methylbutyryl)pyrrolidin-2-carboxamide], the “Reduction in the cumulative milk consumption as % of the control” value is reported as 8%.

Biological target: T1, MC4 (Homo sapiens, UniProt P32245)
T1 construct: expressed in transfected cells; host or cells: HEK293
T1 sequence (P32245 whole entry): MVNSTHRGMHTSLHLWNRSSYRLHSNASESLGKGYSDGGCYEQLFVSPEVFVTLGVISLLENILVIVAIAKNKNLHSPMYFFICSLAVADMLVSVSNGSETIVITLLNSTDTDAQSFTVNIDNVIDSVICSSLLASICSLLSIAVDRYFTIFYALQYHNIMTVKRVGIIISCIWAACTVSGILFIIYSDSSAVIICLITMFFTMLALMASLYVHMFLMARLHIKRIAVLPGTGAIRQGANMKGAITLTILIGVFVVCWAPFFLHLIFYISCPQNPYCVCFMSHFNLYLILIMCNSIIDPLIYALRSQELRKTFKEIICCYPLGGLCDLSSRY
Test: In vitro functional assay with recombinant cells: agonist-induced changes in intracellular Ca2+ (FLIPR)
Assay type: cell-based
Conditions: recombinant HEK293 cells expressing MC4 and G-protein α-16; Fluo-4 Ca2+ FLIPR; 100% = 100 nM reference agonist MTII
Method: In Vitro Functional Assays with Recombinant Cells
Function-testing assays were carried out by determining the agonist-induced changes in the intracellular concentration of Ca^2+ in recombinant HEK293 cells which express both MC4 and G-protein α-16 by means of the FLIPR technique (“Fluorescence Imaging Plate Reader”, Molecular Devices Corp.).
For the investigations, cells were seeded into 96-well microtiter plates (50 000 cells/well) and allowed to grow overnight. The medium was removed and the cells were incubated in buffer which contained the fluorescent dye Fluo-4. After this loading with dye, the cells were washed, test substance was added, and changes in the intracellular Ca^2+ concentration were measured in the FLIPR apparatus. Results have been shown as percentage change relative to the control (0%: no test substance added; 100%: 100 nM reference agonist MTII added), and used to calculate dose/activity plots, with subsequent determination of EC50 values.

Compared with `CC(C)C(N)C(=O)N1CCCC1C(=O)NC1CN(S(=O)(=O)c2ccc(OC(F)(F)F)cc2Cl)C2CN(C(C)C)C(=O)C(Cc3ccc(Cl)cc3)N2C1=O` (stereo not drawn) [Example 7, N-[6-(4-Chlorobenzyl)-1-(2-chloro-4-trifluoromethoxybenzene-sulfonyl)-8-isopropyl-4,7-dioxooctahydropyrazino[1,2-a]-pyrimidin-3-yl]-1-(2-amino-3-methylbutyryl)pyrrolidine-2-carboxamide], `CC(C)C(N)C(=O)N1CCCC1C(=O)NC1CN(S(=O)(=O)c2ccc(Cl)cc2Cl)C2CN(C(C)C)C(=O)C(Cc3ccc(Cl)cc3)N2C1=O` (stereo not drawn) [Example 1, N-[6-(4-Chlorobenzyl)-1-(2,4-dichlorobenzenesulfonyl)-8-isopropyl-4,7-dioxooctahydropyrazino[1,2-a]pyrimidin-3-yl]-1-(2-amino-3-methylbutyryl)pyrrolidin-2-carboxamide] is 6.5-fold lower in EC50: 2.6 nM for the first, 0.4 nM for the second.

`CC(C)C(N)C(=O)N1CCCC1C(=O)NC1CN(S(=O)(=O)c2ccc(Cl)cc2Cl)C2CN(CC(F)F)C(=O)C(Cc3ccc(Cl)cc3)N2C1=O` (stereo not drawn) [Example 11, N-[6-(4-Chlorobenzyl)-1-(2,4-dichlorobenzenesulfonyl)-8-(2,2-difluoroethyl)-4,7-dioxooctahydropyrazino[1,2-a]pyrimidin-3-yl]-1-(2-amino-3-methylbutyryl)pyrrolidine-2-carboxamide] and `CCN1CC2N(C(=O)C(NC(=O)C3CCCN3C(=O)C(N)C(C)C)CN2S(=O)(=O)c2ccc(Cl)cc2Cl)C(Cc2ccc(Cl)cc2)C1=O` (stereo not drawn) [Example 12, N-[6-(4-Chlorobenzyl)-1-(2,4-dichlorobenzenesulfonyl)-8-ethyl-4,7-dioxooctahydropyrazino[1,2-a]pyrimidin-3-yl]-1-(2-amino-3-methylbutyryl)pyrrolidine-2-carboxamide] are the same in EC50: 0.6 nM for the first, 0.6 nM for the second.

`CC(C)C(N)C(=O)N1CCCC1C(=O)NC1CN(S(=O)(=O)c2ccc(Cl)cc2F)C2CN(C(C)C)C(=O)C(Cc3ccc(Cl)cc3)N2C1=O` (stereo not drawn) [Example 8, N-[6-(4-Chlorobenzyl)-1-(4-chloro-2-fluorobenzenesulfonyl)-8-isopropyl-4,7-dioxooctahydropyrazino[1,2-a]pyrimidin-3-yl]-1-(2-amino-3-methylbutyryl)pyrrolidine-2-carboxamide] and `CC(C)C(N)C(=O)N1CCCC1C(=O)NC1CN(S(=O)(=O)c2cc(F)ccc2Cl)C2CN(C(C)C)C(=O)C(Cc3ccc(Cl)cc3)N2C1=O` (stereo not drawn) [Example 6, N-[6-(4-Chlorobenzyl)-1-(2-chloro-5-fluorobenzenesulfonyl)-8-isopropyl-4,7-dioxooctahydropyrazino[1,2-a]pyrimidin-3-yl]-1-(2-amino-3-methylbutyryl)pyrrolidine-2-carboxamide] are within 1.5-fold of each other in EC50: 2.4 nM for the first, 3.2 nM for the second.

First: CC(C)C(C(=O)N1CCCC1C(=O)NC1CN(S(=O)(=O)c2ccc(Cl)cc2Cl)C2CN(C(C)C)C(=O)C(Cc3ccc(Cl)cc3)N2C1=O)N(C)C (stereo not drawn) [Example 5, N-[6-(4-Chlorobenzyl)-1-(2,4-dichlorobenzenesulfonyl)-8-isopropyl-4,7-dioxooctahydropyrazino[1,2-a]pyrimidin-3-yl]-1-(2-dimethylamino-3-methylbutyryl)pyrrolidine-2-carboxamide]
Second: CC(N)C(=O)N1CCCC1C(=O)NC1CN(S(=O)(=O)c2ccc(Cl)cc2Cl)C2CN(C(C)C)C(=O)C(Cc3ccc(Cl)cc3)N2C1=O (stereo not drawn) [Example 3, N-[6-(4-Chlorobenzyl)-1-(2,4-dichlorobenzenesulfonyl)-8-isopropyl-4,7-dioxooctahydropyrazino[1,2-a]pyrimidin-3-yl]-1-(2-aminopropionyl)pyrrolidine-2-carboxamide]
The EC50 of the first is 10-fold higher: 2 nM for the first, 0.2 nM for the second. The second is the more potent here.

First: CC(C)C(N)C(=O)N1CCCC1C(=O)NC1CN(S(=O)(=O)c2ccc(Cl)cc2Cl)C2CN(C3CC3)C(=O)C(Cc3cccnc3)N2C1=O (stereo not drawn) [Example 17, N-[8-Cyclopropyl-1-(2,4-dichlorobenzenesulfonyl)-4,7-dioxo-6-pyridin-3-ylmethyloctahydropyrazino[1,2-a]pyrimidin-3-yl]-1-(2-amino-3-methylbutyryl)pyrrolidine-2-carboxamide]
Second: CC(C)C(N)C(=O)N1CCCC1C(=O)NC1CN(S(=O)(=O)c2ccc(Cl)cc2Cl)C2CN(C(C)C)C(=O)C(Cc3cccnc3)N2C1=O (stereo not drawn) [Example 16, N-[1-(2,4-Dichlorobenzenesulfonyl)-8-isopropyl-4,7-dioxo-6-pyridin-3-ylmethyloctahydropyrazino[1,2-a]pyrimidin-3-yl]-1-(2-amino-3-methylbutyryl)pyrrolidine-2-carboxamide]
The EC50 of the first is 4.9-fold higher: 3490 nM for the first, 717 nM for the second. The second is the more potent here.

Compared with `CCN1C[C@H]2N(C(=O)C(NC(=O)C3CCCN3C(=O)C(N)C(C)C)CN2S(=O)(=O)c2ccc(Cl)cc2Cl)[C@@H](Cc2ccc(F)c(F)c2)C1=O` (stereo partly drawn) [Example 14, N-[1-(2,4-dichlorobenzenesulfonyl)-6-(3,4-difluorobenzyl)-8-ethyl-4,7-dioxooctahydropyrazino[1,2-a]pyrimidin-3-yl]-1-(2-amino-3-methylbutryl)pyrrolidine-2-carboxamide], `CC(C)C(N)C(=O)N1CCCC1C(=O)NC1CN(S(=O)(=O)c2ccc(Cl)cc2Cl)C2CN(C)C(=O)C(Cc3ccc(F)c(F)c3)N2C1=O` (stereo not drawn) [Example 15, N-[1-(2,4-Dichlorobenzenesulfonyl)-6-(3,4-difluorobenzyl)-8-methyl-4,7-dioxooctahydropyrazino[1,2-a]pyrimidin-3-yl]-1-(2-amino-3-methylbutyryl)pyrrolidine-2-carboxamide] is 19-fold higher in EC50: 1.6 nM for the first, 30.8 nM for the second. The first is the more potent here.

`CC(C)CC(N)C(=O)N1CCCC1C(=O)NC1CN(S(=O)(=O)c2ccc(Cl)cc2Cl)C2CN(C(C)C)C(=O)C(Cc3ccc(Cl)cc3)N2C1=O` (stereo not drawn) [Example 4, N-[6-(4-Chlorobenzyl)-1-(2,4-dichlorobenzenesulfonyl)-8-isopropyl-4,7-dioxooctahydropyrazino[1,2-a]pyrimidin-3-yl]-1-(2-amino-4-methylpentanoyl)pyrrolidine-2-carboxamide] and `CC(C)N1CC2N(C(=O)C(NC(=O)C3CCCN3C(=O)CN)CN2S(=O)(=O)c2ccc(Cl)cc2Cl)C(Cc2ccc(Cl)cc2)C1=O` (stereo not drawn) [Example 2, N-[6-(4-Chlorobenzyl)-1-(2,4-dichlorobenzenesulfonyl)-8-isopropyl-4,7-dioxooctahydropyrazino[1,2-a]pyrimidin-3-yl]-1-(2-aminoacetyl)pyrrolidine-2-carboxamide] are within 1.5-fold of each other in EC50: 0.4 nM for the first, 0.6 nM for the second.

First: CC(C)C(N)C(=O)N1CCCC1C(=O)NC1CN(S(=O)(=O)c2ccc(Cl)cc2Cl)C2CN(C)C(=O)C(Cc3ccc(Cl)cc3)N2C1=O (stereo not drawn) [Example 13]
Second: CC(C)C(N)C(=O)N1CCCC1C(=O)NC1CN(S(=O)(=O)c2ccc(Cl)cc2Cl)C2CN(C(C)C)C(=O)C(Cc3ccc(F)c(F)c3)N2C1=O (stereo not drawn) [Example 9, N-[1-(2,4-Dichlorobenzenesulfonyl)-6-(3,4-difluorobenzyl)-8-isopropyl-4,7-dioxooctahydropyrazino[1,2-a]pyrimidin-3-yl]-1-(2-amino-3-methylbutyryl)pyrrolidine-2-carboxamide]
The EC50 of the first is 3.1-fold higher: 4.7 nM for the first, 1.5 nM for the second.

Compound `CC(C)C(N)C(=O)N1CCCC1C(=O)NC1CN(S(=O)(=O)c2ccc(Cl)cc2Cl)C2CN(C(C)C)C(=O)C(Cc3ccc(F)cc3F)N2C1=O` (stereo not drawn) [Example 10, N-[1-(2,4-Dichlorobenzenesulfonyl)-6-(2,4-difluorobenzyl)-8-isopropyl-4,7-dioxooctahydropyrazino[1,2-a]pyrimidin-3-yl]-1-(2-amino-3-methylbutyryl)pyrrolidine-2-carboxamide] has an EC50 of 5.7 nM.
